Data set [1] has as its system non-transformed cell lines. The arrangement: method as in PMID 21990324. The conditions noted are these: cited from earlier work.
The subject of data set [2] is PrCSC cells. Put plainly: Cytotoxicity (LDH release) in prostate cancer stem cells. It is filed as cell-based, human. As to the method: (§1) LDH release was assessed by spectrophotometrically measuring the oxidation of NADH in both the cells and media. Cells were seeded in 24-well plates, and exposed to PKCδ inhibitors or vehicle. After different times of exposure, cytotoxicity was quantified by a standard measurement of LDH release with the use of the LDH assay kit (Roche Molecular Biochemicals) according to the manufacturer’s protocol. Briefly, total culture medium was cleared by centrifugation. For assay of released LDH, supernatants were collected. To assess total LDH in cells, Triton X-100 was added to vehicle (control) wells to release intracellular LDH. LDH assay reagent was added to lysates or supernatants and incubated for up to 30 min at room temperature in dark, the reaction was stopped, and the absorbance was measured at 490 nm. The percentage of LDH release was then calculated as the LDH in the supernatants as a fraction of the total LDH.
Figure 2 Effects of PKCδ inhibitors on human cancer stem cells. (A) PCSC and PrCSC cells at 80% confluence were exposed to rottlerin. DMSO served as vehicle control (Vehicle). After 24 and 72 hr of exposure, cell mass was evaluated by MTT assay. Control values were normalized to 100%. p values for comparison between treatments reached significance at 24 hr of exposure (p≤0.01) for both cell types, and remained significant at 72 hr. (B) PCSC and PrCSC cells at 50% confluence were exposed to rottlerin. Cytotoxicity was evaluated by LDH-release assay. […] Viable cells were enumerated and re-plated in media without inhibitor, and colony numbers were quantitated 15 days later. p values for comparison of treatment effects on clonogenic capacity reached significance (p=0.005) at 18 hr of exposure and remained significant for all subsequent exposure times. […] Cytotoxicity was evaluated by LDH-release assay, as in panel B. p values for comparison between treatment effects on LDH release reached significance at 24 hr of exposure to 2.5 μM KAM1 for PCSC cells and at 10 μM for PrCSC (p≤0.01), and remained significant at 72 hr for all concentrations of KAM1. […]
On the technique in general: Release of lactate dehydrogenase indicates damage to the cell membrane.

Data set [3] has as its target T1, recombinant PKCα (Homo sapiens, UniProt P17252).
T1 construct: purchased Invitrogen
Briefly: PKC kinase activity assay (Z-lyte), PKCα. It is filed as biochemical. As to conditions: in vitro kinase assay; read-out: PKCα IC50. Here is the method: (§2) Assays were carried out using recombinant PKCδ or PKCα, (Invitrogen) and the Z-lyte Kinase Assays (Invitrogen) with a “PKC-kinase-specific” peptide substrate. FRET interactions produce a change in fluorescence (ex455/ex520) upon phosphorylation. The kit was used according to the manufacturer’s instructions.

In data set [4] the target is T2, recombinant PKCδ (Homo sapiens, UniProt Q05655).
T2 construct: purchased Invitrogen
T2 sequence (Q05655 whole entry): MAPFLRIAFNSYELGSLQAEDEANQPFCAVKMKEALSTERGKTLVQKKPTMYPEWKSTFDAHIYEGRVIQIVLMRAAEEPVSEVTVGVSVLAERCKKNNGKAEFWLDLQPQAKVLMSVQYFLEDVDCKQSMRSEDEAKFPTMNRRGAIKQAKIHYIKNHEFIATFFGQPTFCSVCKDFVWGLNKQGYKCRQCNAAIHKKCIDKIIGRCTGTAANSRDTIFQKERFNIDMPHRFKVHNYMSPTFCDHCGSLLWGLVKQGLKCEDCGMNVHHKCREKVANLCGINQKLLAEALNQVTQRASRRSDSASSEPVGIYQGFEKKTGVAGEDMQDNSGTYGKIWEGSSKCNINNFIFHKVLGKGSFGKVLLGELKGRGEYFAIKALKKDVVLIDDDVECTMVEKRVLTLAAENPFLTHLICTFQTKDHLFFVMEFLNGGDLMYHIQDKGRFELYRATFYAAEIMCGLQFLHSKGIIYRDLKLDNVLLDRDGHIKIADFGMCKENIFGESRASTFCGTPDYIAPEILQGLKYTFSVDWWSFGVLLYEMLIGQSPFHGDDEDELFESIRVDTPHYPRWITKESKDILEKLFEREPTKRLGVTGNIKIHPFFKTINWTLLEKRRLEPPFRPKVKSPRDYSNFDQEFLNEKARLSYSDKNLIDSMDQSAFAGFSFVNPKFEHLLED
Briefly: PKC kinase activity assay (Z-lyte), PKCδ. It is filed as biochemical. As to conditions: in vitro kinase assay; read-out: PKCδ IC50. Here is the method:
as §2

Data set [5] relates to PCSC cells. Briefly: Cytotoxicity (LDH release) in pancreatic cancer stem cells. It is filed as cell-based, human. Here is the method: as §1
Figure 2 Effects of PKCδ inhibitors on human cancer stem cells. (A) PCSC and PrCSC cells at 80% confluence were exposed to rottlerin. DMSO served as vehicle control (Vehicle). After 24 and 72 hr of exposure, cell mass was evaluated by MTT assay. Control values were normalized to 100%. p values for comparison between treatments reached significance at 24 hr of exposure (p≤0.01) for both cell types, and remained significant at 72 hr. (B) PCSC and PrCSC cells at 50% confluence were exposed to rottlerin. Cytotoxicity was evaluated by LDH-release assay. Total maximal LDH release was assigned the arbitrary value of 100% (Control). p values for comparison between effects of treatments on LDH release reached significance at 24 hr of exposure (p<0.01) for both cell types, and remained significant at 72 hr. (C) Effects of PKCδ inhibitor on tumor cell clonogenic capacity. PCSC were exposed to vehicle or rottlerin (10 μM) for 6, 18, 24, or 48 hr. Viable cells were enumerated and re-plated in media without inhibitor, and colony numbers were quantitated 15 days later. p values for comparison of treatment effects on clonogenic capacity reached significance (p=0.005) at 18 hr of exposure and remained significant for all subsequent exposure times. The insert is a photograph of stained colonies on plates. (D) Structures of staurosporine, rottlerin, second-generation (KAM1) and third-generation (BJE6-106) derivatives. (E) PCSC and PrCSC cells at 50% confluence were exposed to KAM1 at the indicated concentrations. DMSO served as vehicle control (Vehicle). Cytotoxicity was evaluated by LDH-release assay, as in panel B. p values for comparison between treatment effects on LDH release reached significance at 24 hr of exposure to 2.5 μM KAM1 for PCSC cells and at 10 μM for PrCSC (p≤0.01), and remained significant at 72 hr for all concentrations of KAM1. Error bars represent SEM.

The IC50 is the concentration that inhibits the measured activity by half.

On to `CC1(C)C=Cc2cc(CCn3c4ccccc4c4ccccc43)cc(C(=O)/C=C/c3ccccc3)c2O1` [KAM1], for which the “cytotoxicity in non-transformed cell lines” value in data set [1] is given as “not producing cytotoxicity”. Also, the “lowest concentration inducing cytotoxicity (LDH release) in PrCSC” value in data set [2] was 5 µM. Moreover, the “concentration at which LDH release reached significance in PrCSC” value in data set [2] (24 hr of exposure, p≤0.01) worked out at 10 µM. For the same compound, the IC50 in data set [3] was found to be 157 µM; in data set [4], 2 µM. In addition, the “lowest concentration inducing cytotoxicity (LDH release) in PCSC” value in data set [5] was determined as 2.5 µM. For the same compound, the “concentration at which LDH release reached significance in PCSC” value in data set [5] (24 hr of exposure, p≤0.01) stood at 2.5 µM.

These data come from publication PMC3927586, “Protein kinase C-delta inactivation inhibits the proliferation and survival of cancer stem cells in culture and in vivo” (BMC Cancer, 2014).
